According to PubChem BioAssay (NCI):
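Cultured in 96-well plates, cells were exposed to test compound for 48 hours across five concentrations. TGI is the concentration that stops growth completely.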

Experiments:
Assay in all cases: DTP human tumour cell line panel, 48 h
SN12C renal = tested on: SN12C renal
CAKI-1 renal = tested on: CAKI-1 renal
A498 renal = tested on: A498 renal
OVCAR-4 ovarian = tested on: OVCAR-4 ovarian
HCT-116 colon = tested on: HCT-116 colon
SF-295 CNS = tested on: SF-295 CNS
OVCAR-8 ovarian = tested on: OVCAR-8 ovarian
SF-539 CNS = tested on: SF-539 CNS
DMS 114 small cell lung = tested on: DMS 114 small cell lung
HOP-62 NSCLC = tested on: HOP-62 NSCLC
UACC-62 melanoma = tested on: UACC-62 melanoma
MALME-3M melanoma = tested on: MALME-3M melanoma
UACC-257 melanoma = tested on: UACC-257 melanoma
CCRF-CEM leukemia = tested on: CCRF-CEM leukemia
SK-OV-3 ovarian = tested on: SK-OV-3 ovarian
HCC-2998 colon = tested on: HCC-2998 colon
OVCAR-5 ovarian = tested on: OVCAR-5 ovarian
A549 NSCLC = tested on: A549 NSCLC
NCI-H226 lung = tested on: NCI-H226 lung
NCI-H522 lung = tested on: NCI-H522 lung
TK-10 renal = tested on: TK-10 renal
SNB-19 CNS = tested on: SNB-19 CNS
SR leukemia = tested on: SR leukemia
COLO 205 colon = tested on: COLO 205 colon
KM12 colon = tested on: KM12 colon
EKVX NSCLC = tested on: EKVX NSCLC
HCT-15 colon = tested on: HCT-15 colon
DMS 273 small cell lung = tested on: DMS 273 small cell lung
HL-60(TB) leukemia = tested on: HL-60(TB) leukemia
IGROV1 ovarian = tested on: IGROV1 ovarian
SNB-75 CNS = tested on: SNB-75 CNS
SK-MEL-2 melanoma = tested on: SK-MEL-2 melanoma
SK-MEL-28 melanoma = tested on: SK-MEL-28 melanoma
M14 melanoma = tested on: M14 melanoma
LOX IMVI melanoma = tested on: LOX IMVI melanoma
K-562 leukemia = tested on: K-562 leukemia
HOP-18 NSCLC = tested on: HOP-18 NSCLC
RPMI-8226 leukemia = tested on: RPMI-8226 leukemia
M19-MEL melanoma = tested on: M19-MEL melanoma
U251 CNS = tested on: U251 CNS
UO-31 renal = tested on: UO-31 renal
RXF 393 renal = tested on: RXF 393 renal
LXFL 529 NSCLC = tested on: LXFL 529 NSCLC
KM20L2 colon = tested on: KM20L2 colon
NCI-H460 lung = tested on: NCI-H460 lung
HT29 colon = tested on: HT29 colon
SW-620 colon = tested on: SW-620 colon
SNB-78 CNS = tested on: SNB-78 CNS
786-0 renal = tested on: 786-0 renal
ACHN renal = tested on: ACHN renal
OVCAR-3 ovarian = tested on: OVCAR-3 ovarian
SK-MEL-5 melanoma = tested on: SK-MEL-5 melanoma
DLD-1 colon = tested on: DLD-1 colon
SF-268 CNS = tested on: SF-268 CNS
MOLT-4 leukemia = tested on: MOLT-4 leukemia
HOP-92 NSCLC = tested on: HOP-92 NSCLC
NCI-H23 lung = tested on: NCI-H23 lung
XF 498 CNS = tested on: XF 498 CNS

Measured: TGI

C[C@@H](O)CCC(=O)c1ccoc1
> 100 µM: SN12C renal | CAKI-1 renal | A498 renal | OVCAR-4 ovarian | HCT-116 colon | SF-295 CNS | OVCAR-8 ovarian | SF-539 CNS | DMS 114 small cell lung | HOP-62 NSCLC | UACC-62 melanoma | MALME-3M melanoma | UACC-257 melanoma | CCRF-CEM leukemia | SK-OV-3 ovarian | HCC-2998 colon | OVCAR-5 ovarian | A549 NSCLC | NCI-H226 lung | NCI-H522 lung | TK-10 renal | SNB-19 CNS | SR leukemia | COLO 205 colon | KM12 colon | EKVX NSCLC | HCT-15 colon | DMS 273 small cell lung | HL-60(TB) leukemia | IGROV1 ovarian | SNB-75 CNS | SK-MEL-2 melanoma | SK-MEL-28 melanoma | M14 melanoma | LOX IMVI melanoma | K-562 leukemia | HOP-18 NSCLC | RPMI-8226 leukemia | M19-MEL melanoma | U251 CNS | UO-31 renal | RXF 393 renal | LXFL 529 NSCLC | KM20L2 colon | NCI-H460 lung | HT29 colon | SW-620 colon | SNB-78 CNS | 786-0 renal | ACHN renal | OVCAR-3 ovarian | SK-MEL-5 melanoma | DLD-1 colon | SF-268 CNS | MOLT-4 leukemia | HOP-92 NSCLC | NCI-H23 lung

CCNc1cnc2c(n1)c(=O)n(C)c(=O)n2C
> 100 µM: SN12C renal | CAKI-1 renal | A498 renal | OVCAR-4 ovarian | HCT-116 colon | SF-295 CNS | XF 498 CNS | OVCAR-8 ovarian | SF-539 CNS | DMS 114 small cell lung | HOP-62 NSCLC | UACC-62 melanoma | MALME-3M melanoma | UACC-257 melanoma | CCRF-CEM leukemia | SK-OV-3 ovarian | HCC-2998 colon | OVCAR-5 ovarian | A549 NSCLC | NCI-H522 lung | TK-10 renal | SNB-19 CNS | COLO 205 colon | KM12 colon | EKVX NSCLC | HCT-15 colon | DMS 273 small cell lung | HL-60(TB) leukemia | IGROV1 ovarian | SNB-75 CNS | SK-MEL-2 melanoma | SK-MEL-28 melanoma | M14 melanoma | K-562 leukemia | RPMI-8226 leukemia | M19-MEL melanoma | U251 CNS | UO-31 renal | RXF 393 renal | LXFL 529 NSCLC | KM20L2 colon | NCI-H460 lung | HT29 colon | SW-620 colon | ACHN renal | OVCAR-3 ovarian | SK-MEL-5 melanoma | DLD-1 colon | SF-268 CNS | MOLT-4 leukemia | HOP-92 NSCLC | NCI-H23 lung
